Consider seven compounds from patent publication US8461107B2 (Merck Sharp & Dohme Corp., priority 2008, dated 2013).

Each structure is given as a SMILES string.

The assay deals with T1, HCV genotype 1b (BK) NS3 modified with a R155K mutation (Hepatitis C virus genotype 1b, UniProt P26663, R1181K).
T1 construct: HCV genotype 1b (BK) NS3 modified with a R155K mutation
Put plainly: HCV NS3 protease time-resolved fluorescence (TRF) assay, NS3 protease 1b R155K Ki activity. To be noted: HCV genotype 1b (BK) NS3 with R155K mutation; TRF peptide substrate 100 nM; Ki derived from IC50. In kind it is biochemical. The method in brief: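 Pre-incubation of NS3/NS4A protease (genotype 1b BK, R155K) with inhibitor for 30 min, then 1 h at room temperature with 100 nM TRF peptide substrate in pH 7.5 HEPES buffer with 10 mM DTT. Reaction quenched with pH 5.5 MES; time-resolved fluorescence read (ex 340/em 615 nm). Ki derived from four-parameter IC50 fit via IC50=Ki(1+[S]/KM).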

The compound `CC[C@@H]1C[C@]1(NC(=O)[C@@H]1C[C@@H]2CN1C(=O)[C@H](C1CCCC1)NC(=O)O[C@@H]1CCC[C@H]1CC/C=C/Cn1c(nc3cc(Br)ccc3c1=O)O2)C(=O)NS(=O)(=O)C1CC1` [(3aR,7S,10S,12R,22E,25aS)-16-bromo-7-cyclopentyl-N-((1R,2R)-1-{[(cyclopropylsulfonyl)amino]carbonyl}-2-ethylcyclopropyl)-5,8,19-trioxo-1,2,3,3a,5,6,7,8,11,12,21,24,25,25a-tetradecahydro-10H,19H-9,12-methanocyclopenta[18,19][1,10,3,6,12]dioxatriazacyclononadecino[11,12-b]quinazoline-10-carboxamide] registered a Ki of 0.1 to 0.5 nM.
The figure for `CC[C@@H]1C[C@]1(NC(=O)[C@@H]1C[C@@H]2CN1C(=O)[C@H](C1CCCC1)NC(=O)O[C@@H]1CCC[C@H]1CCCCCn1c(cc3cc(OC)ccc3c1=O)O2)C(=O)NS(=O)(=O)C1CC1` [(3aR,7S,10S,12R,25aR)-7-cyclopentyl-N-((1R,2R)-1-{[(cyclopropylsulfonyl)amino]carbonyl}-2-ethylcyclopropyl)-16-methoxy-5,8,19-trioxo-1,2,3,3a,5,6,7,8,11,12,21,22,23,24,25,25a-hexadecahydro-10H,19H-9,12-methanocyclopenta[18,19][1,10,3,6,12]dioxatriazacyclononadecino[12,11-b]isoquinoline-10-carboxamide] is 0.1 to 0.5 nM.
As to `CC[C@@H]1C[C@]1(NC(=O)[C@@H]1C[C@@H]2CN1C(=O)[C@H](C1CCCC1)NC(=O)O[C@@H]1CCC[C@H]1CCCCCn1c(nc3cc(Cl)ccc3c1=O)O2)C(=O)NS(=O)(=O)C1CC1` [(3aR,7S,10S,12R,25aR)-16-chloro-7-cyclopentyl-N-((1R,2R)-1-{[(cyclopropylsulfonyl)amino]carbonyl}-2-ethylcyclopropyl)-5,8,19-trioxo-1,2,3,3a,5,6,7,8,11,12,21,22,23,24,25,25a-hexadecahydro-10H,19H-9,12-methanocyclopenta[18,19][1,10,3,6,12]dioxatriazacyclononadecino[11,12-b]quinazoline-10-carboxamide], the Ki is 0.1 to 0.5 nM.
The figure for `CC[C@@H]1C[C@]1(NC(=O)[C@@H]1C[C@@H]2CN1C(=O)[C@H](C1CCCCC1)NC(=O)O[C@@H]1CCC[C@H]1CCCCCn1c(cc3cc(Cl)ccc3c1=O)O2)C(=O)NS(=O)(=O)C1CC1` [(3aR,7S,10S,12R,25aR)-16-chloro-7-cyclohexyl-N-((1R,2R)-1-{[(cyclopropylsulfonyl)amino]carbonyl}-2-ethylcyclopropyl)-5,8,19-trioxo-1,2,3,3a,5,6,7,8,11,12,21,22,23,24,25,25a-hexadecahydro-10H,19H-9,12-methanocyclopenta[18,19][1,10,3,6,12]dioxatriazacyclononadecino[12,11-b]isoquinoline-10-carboxamide] is 0.1 to 0.5 nM; for `CC[C@@H]1C[C@]1(NC(=O)[C@@H]1C[C@@H]2CN1C(=O)[C@H](C1CCCC1)NC(=O)O[C@@H]1CCC[C@H]1CC/C=C/Cn1c(nc3cc(OC)ccc3c1=O)O2)C(=O)NS(=O)(=O)C1CC1` [Example 50, (3aR,7S,10S,12R,22E,25aS)-7-cylcopentyl-N-((1R,2R)-1-{[(cyclopropylsulfonyl)amino]carbonyl}-2-ethylcyclopropyl)-16-methoxy-5,8,19-trioxo-1,2,3,3a,5,6,7,8,11,12,21,24,25,25a-tetradecahydro-10H,19H-9,12-methanocyclopenta[18,19][1,10,3,6,12]dioxatriazacyclononadecino[11,12-b]quinazoline-10-carboxamide] it is 0.1 to 0.5 nM; for `C=C[C@@H]1C[C@]1(NC(=O)[C@@H]1C[C@@H]2CN1C(=O)[C@H](C1CCCC1)NC(=O)O[C@@H]1CCC[C@H]1CCCCCn1c(nc3cc(OC)ccc3c1=O)O2)C(=O)NS(=O)(=O)C1CC1` [(3aR,7S,10S,12R,25aR)-7-cyclopentyl-N-((1R,2S)-1-{[(cyclopropylsulfonyl)amino]carbonyl}-2-vinylcyclopropyl)-16-methoxy-5,8,19-trioxo-1,2,3,3a,5,6,7,8,11,12,21,22,23,24,25,25a-hexadecahydro-10H,19H-9,12-methanocyclopenta[18,19][1,10,3,6,12]dioxatriazacyclononadecino[11,12-b]quinazoline-10-carboxamide] it is less than 0.1 nM.
On to `CC[C@@H]1C[C@]1(NC(=O)[C@@H]1C[C@@H]2CN1C(=O)[C@H](C1CCCC1)NC(=O)O[C@@H]1CCC[C@H]1CC/C=C/Cn1c(nc3cc(S(C)(=O)=O)ccc3c1=O)O2)C(=O)NS(=O)(=O)C1CC1` [(3aR,7S,10S,12R,22E,25aS)-7-cyclopentyl-N-((1R,2R)-1-{[(cyclopropylsulfonyl)amino]carbonyl}-2-ethylcyclopropyl)-16-(methylsulfonyl)-5,8,19-trioxo-1,2,3,3a,5,6,7,8,11,12,21,24,25,25a-tetradecahydro-10H,19H-9,12-methanocyclopenta[18,19][1,10,3,6,12]dioxatriazacyclononadecino[11,12-b]quinazoline-10-carboxamide], for which the Ki is less than 0.1 nM.

For orientation: Ki means a measure of affinity in units of concentration, obtained from inhibition or displacement.
